PMC3216861, “Improving L-arabinose utilization of pentose fermenting Saccharomyces cerevisiae cells by heterologous expression of L-arabinose transporting sugar transporters” (Biotechnology for Biofuels, 2011)

Columns and labels:
ScHxt9 = molecular target: T1, ScHxt9 (Saccharomyces cerevisiae, UniProt P40885); experiment: growth complementation of transporter-null L-arabinose-utilizing yeast; type: cell-based; details: 20 g/L L-arabinose plates, 30°C, 10 days, strain TSY01; growth read-out only
T1 construct: gene HXT9; HXT9 under shortened HXT7 promoter on 2-micron plasmid pTHHXT9, expressed in hexose-transporterless strain TSY01
T1 sequence (P40885 1-567): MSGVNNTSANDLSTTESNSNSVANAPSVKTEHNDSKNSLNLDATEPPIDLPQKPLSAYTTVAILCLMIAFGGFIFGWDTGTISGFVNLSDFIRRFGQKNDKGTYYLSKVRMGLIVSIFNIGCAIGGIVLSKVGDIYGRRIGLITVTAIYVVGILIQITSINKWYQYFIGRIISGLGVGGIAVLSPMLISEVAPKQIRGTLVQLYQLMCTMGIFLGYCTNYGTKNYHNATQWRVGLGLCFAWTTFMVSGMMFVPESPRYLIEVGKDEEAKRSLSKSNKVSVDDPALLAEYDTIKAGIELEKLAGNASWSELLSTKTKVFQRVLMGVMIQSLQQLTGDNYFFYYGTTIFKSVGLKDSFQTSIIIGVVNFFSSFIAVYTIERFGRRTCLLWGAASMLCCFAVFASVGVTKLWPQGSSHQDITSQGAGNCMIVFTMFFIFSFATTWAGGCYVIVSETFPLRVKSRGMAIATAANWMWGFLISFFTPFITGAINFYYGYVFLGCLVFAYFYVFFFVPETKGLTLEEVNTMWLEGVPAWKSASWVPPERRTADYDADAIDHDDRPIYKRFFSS

ScHxt10 = molecular target: T2, ScHxt10 (Saccharomyces cerevisiae, UniProt P43581); experiment: as above; type: cell-based; details: 20 g/L L-arabinose plates, 30°C, 10 days, strain TSY01; growth read-out only
T2 construct: gene HXT10; HXT10 under shortened HXT7 promoter on 2-micron plasmid pTHHXT10, expressed in hexose-transporterless strain TSY01
T2 sequence (P43581 1-546): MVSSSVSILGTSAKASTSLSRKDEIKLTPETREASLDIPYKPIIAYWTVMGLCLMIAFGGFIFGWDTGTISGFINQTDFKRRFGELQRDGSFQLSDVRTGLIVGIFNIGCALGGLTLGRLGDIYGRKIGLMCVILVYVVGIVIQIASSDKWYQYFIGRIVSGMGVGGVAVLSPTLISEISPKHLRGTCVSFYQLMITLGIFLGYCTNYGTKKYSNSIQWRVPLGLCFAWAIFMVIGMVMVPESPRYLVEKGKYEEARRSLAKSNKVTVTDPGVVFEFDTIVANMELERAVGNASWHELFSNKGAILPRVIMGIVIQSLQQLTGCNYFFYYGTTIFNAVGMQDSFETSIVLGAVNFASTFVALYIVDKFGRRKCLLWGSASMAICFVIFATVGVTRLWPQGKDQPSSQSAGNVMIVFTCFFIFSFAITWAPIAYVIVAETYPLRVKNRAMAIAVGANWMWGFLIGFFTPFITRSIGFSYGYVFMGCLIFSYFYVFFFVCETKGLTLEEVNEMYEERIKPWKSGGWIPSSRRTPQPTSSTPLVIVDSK

## OC1OC[C@H](O)[C@H](O)[C@H]1O (stereo partly drawn) [L-arabinose]
ScHxt9
  growth complementation of transporter-null L-arabinose-utilizing yeast: Transformants expressing ScGal2, ScHxt9 and ScHxt10 could grow on the L-arabinose medium
ScHxt10
  growth complementation of transporter-null L-arabinose-utilizing yeast: Transformants expressing ScGal2, ScHxt9 and ScHxt10 could grow on the L-arabinose medium
